Converted amounts (≈) assume the structure as drawn.
Experiments:
[1] = tested on: DNA; test: Bleomycin-dependent DNA damage; format: biochemical; conditions: test sample 0.1 mg/mL, λ = 532 nm; mean of three replicates ± SD; ascorbic acid 0.24 mM
Excerpt: Bleomycin-dependent DNA damage. The prepared polycyclic thiadiazolopyrimidine-based compounds were examined through the bleomycin-dependant DNA damage, and the results were compared to that of ascorbic acid as a positive control. The obtained data reflected the ability of these derivatives to protect the DNA from damage. The capability of compounds 16a–b and 17a–b to manifest the best protective effect against DNA damage was indicated by the corresponding absorbance values ranging from 0.031 to 0.053 (Table 4)[35],[36].
Bleomycin-dependent DNA damage experiment: To a mixture of 0.5 mg / mL of DNA, 5 mM magnesium chloride, 50 mM ferric chloride and 0.05 mg / mL bleomycin sulfate was prepared. The test sample was prepared at a concentration of 0.1 mg / mL and added to the mixture. After incubation of the mixture for one hour at 37 °C, 0.05 mL of EDTA (0.1 M) was added to terminate the reaction. In the next step, 0.5 mL of TBA (1% w / v) and 0.5 mL of HCl (25% v / v) were added for colour development and the mixture was heated for 10 minutes at 80 °C. The mixture was centrifuged and the absorbance expressed, the amount of damage to the DNA was measured at λ = 532 nm. L-Ascorbic acid (0.24 mM) was used as a positive control.

[2] = MTT cytotoxicity assay on normal cells; format: cell-based; conditions: human, WI38 normal fibroblast cells
Protocol: (§1) The cytotoxicity of the prepared tri-and tetra-cyclic thiadiazolopyrimidine compounds were examined toward various cancer cell lines, such as liver and breast cancer (MCF-7), prostate cancer (PC3), laryngeal carcinoma (Hep-2), carcinoma (HepG2), and standard normal fibroblast cells (WI38) using the MTT assay[33] at the National Research Centre (Egypt). The cytotoxicity (Table 3) toward 50% inhibition of the cell viability (IC50 values) was assessed using 5-fluorouracil (5-Fu) as the standard anticancer drug.
(§2) The synthesized compounds were subjected to the MTT cytotoxicity assay on the basis of the cited literature.
(§3) MTT cytotoxicity assay: The technical method of MTT assay depends on the reduction of yellow 3-(4,5-methyl-2-thiazolyl)-2,5-diphenyl-2H-tetrazolium bromide (MTT) into purple formazan product, mainly by mitochondrial reductase activity inside the living cells. The cells used in cytotoxicity assay were cultured in RPMI 1640 medium supplemented with 10% fetal calf serum. Cells suspended in the medium (2×10^4 cells/mL) were plated in 96-well culture plates and incubated at 37 °C in a 5% CO2 incubator for 12 hours. The tested sample (2 μL) was added to the cells (2×10^4) in 96-well plates and cultured at 37 °C for 3 days. The cultured cells were mixed with 20 μL of MTT solution and incubated for 4 hours at 37 °C. The supernatant was carefully removed from each well, the formazan crystals were dissolved after addition of DMSO (100 μL) for each well to form the cellular reduction of MTT. After mixing with a mechanical plate mixer, the absorbance of each well was measured by a microplate reader using a test wavelength of 570 nm. The results were expressed as the IC50 values, which inducing 50% inhibition of cell growth of the treated cells when compared to the growth of control cells.

[3] = tested on: PC3; test: MTT cytotoxicity assay; format: cell-based; conditions: Homo sapiens, PC-3, 72 h, 3 days
Protocol: as §1, §2, §3

[4] = tested on: Hep-2; test: MTT cytotoxicity assay; format: cell-based; conditions: Homo sapiens, HEp-2, 72 h, 3 days
Protocol: as §1, §2, §3

[5] = tested on: MCF-7; test: MTT cytotoxicity assay; format: cell-based; conditions: Homo sapiens, MCF7, 72 h, 3 days
Protocol: as §1, §2, §3

[6] = tested on: HepG2; test: MTT cytotoxicity assay; format: cell-based; conditions: Homo sapiens, HepG2, 72 h, 3 days
Protocol: as §1, §2, §3

[7] = tested on: Aspergillus fumigatus 293; test: Antifungal MIC, two-fold serial dilution; format: cell-based; conditions: Fungi, glucose minimal medium, 30°C, 48 h, visual (no turbidity)
Protocol: (§4) The antimicrobial activity of the synthesized thiadiazolopyrimidine compounds was studied toward diverse pathogenic strains, such as gram-positive bacteria (Staphylococcus aureus ATCC 29213 and Bacillus cereus UW85), gram-negative bacteria (Escherichia coli ATCC 12435 and Pseudomonas aeruginosa ATCC 29260), and fungi (Candida albicans and Aspergillus fumigatus 293). The assessment was performed through the two-fold dilution technique using Ampicillin (antibacterial) and Fluconazole (antifungal) as the reference drugs[28],[29]. The minimal inhibitory concentration (MICs, µg/mL) of the synthesized derivatives for prohibiting microbial growth was determined through the visual detection (no turbidity) technique.
(§5) The synthesized thiadiazolopyrimidine-based compounds were evaluated and adopted for antibacterial and antifungal effectiveness using the approved procedure[38],[39].
(§6) Minimal inhibitory concentrations (MICs) were determined by serial dilution technique using 96-multiwell microtiter plates. The investigated compounds were dissolved in DMSO 100% to prepare stock solutions of 5000 µg/mL. Two-fold serial dilutions of the dissolved compounds were performed in glucose minimal medium providing eight different concentrations (1250, 625, 312.5, 156, 78, 39, 19.5 µg/mL). The microorganisms were diluted to 1 ×10^3 SFU/mL in glucose minimal medium, and 20 µL of the diluted culture was added to the test solutions (50 µL) in the wells (one well per concentration). The plates were incubated at 30°C for 48 h. MIC was detected visually as the least concentration inhibiting fungal growth (no turbidity) and the activity of the tested compounds was estimated in comparison to fluconazole.

[8] = tested on: Candida albicans; test: Antifungal MIC, two-fold serial dilution; format: cell-based; conditions: Fungi, glucose minimal medium, 30°C, 48 h, visual (no turbidity)
Protocol: as §4, §5, §6

[9] = tested on: Escherichia coli ATCC 12435; test: Antibacterial MIC, two-fold serial dilution; format: cell-based; conditions: ATCC12435, Gram −ve bacteria, LB broth, 37°C, 24 h, visual (no turbidity)
Protocol: as §4, §5
(§7) Minimal inhibitory concentrations (MICs) were determined by serial dilution technique using 96-multiwell microtiter plates. The investigated compounds were dissolved in DMSO 100% to prepare stock solutions of 5000 µg/mL. Two-fold serial dilutions of the dissolved compounds were performed in LB broth providing eight different concentrations (1250, 625, 312.5, 156, 78, 39, 19.5 µg/mL). Overnight cultures of microorganisms were diluted to 1 ×10^6 CFU/mL in LB broth, and 20 mL of the diluted cultures were added to the test solutions (50 mL) in the wells (one well per concentration per bacterial strain). The plates were incubated at 37°C for 24 h. MIC was detected visually as the least concentration inhibiting bacterial growth (no turbidity) and the activity of the tested compounds was estimated in comparison to ampicillin.

[10] = tested on: Pseudomonas aeruginosa ATCC 29260; test: Antibacterial MIC, two-fold serial dilution; format: cell-based; conditions: ATCC29260, Gram −ve bacteria, LB broth, 37°C, 24 h, visual (no turbidity), read-out: MIC P. aeruginosa
Protocol: as §4, §5, §7

[11] = tested on: Bacillus cereus UW85; test: Antibacterial MIC, two-fold serial dilution; format: cell-based; conditions: Gram +ve bacteria, LB broth, 37°C, 24 h, visual (no turbidity), read-out: MIC B. cereus
Protocol: as §4, §5, §7

[12] = tested on: Staphylococcus aureus ATCC 29213; test: Antibacterial MIC, two-fold serial dilution; format: cell-based; conditions: ATCC29213, Gram +ve bacteria, LB broth, 37°C, 24 h, visual (no turbidity), read-out: MIC S. aureus
Protocol: as §4, §5, §7

[13] = tested on: Chromobacterium violaceum (ATCC 12472); test: Antiquorum-sensing assay (violacein pigment inhibition); format: cell-based; conditions: 5 mg/mL, 50 µL per well, 30°C, 48 h; QS inhibition = r2 − r1
Excerpt: The synthesized thiadiazolopyrimidine-based compounds were screened for their antiquorum-sensing (anti-QS) inhibition activity by the Chromobacterium violaceum (ATCC 12472) technique using catechin as the standard compound[28]–[30]. The QS technique of C. violaceum was remarked by the detection of violacein (violet pigment)[31],[32]. Meanwhile, the reactivity of the synthesized thiadiazolopyrimidine-containing derivatives as drugs depends on their efficiency to inhibit the liberation of violacein during the QS technique. The QS inhibition was determined by the following equation: QS inhibition (mm) = (r2 − r1), where r1 is the inhibition radius of the bacterial growth and r2 is the inhibition radius for growth as well as the release of the pigment.
The anti-QS inefficiency was evaluated using the previous technique mentioned in the literature.
The culture was prepared by growing Ch. violaceum ATCC 12472 in LB broth and incubated for 16–18 h in an orbital incubator running at 28°C and 150 rpm. The culture was then adjusted to 0.5 McFarland standard (ca. 1 × 10^6 CFU/mL). Ch. violaceum (50 µL) was inoculated into LB agar (50 mL), poured into plates, and solidified. Wells were made in LB agar medium using cork borer. The tested compounds were dissolved in DMSO 100% in Eppendorf tubes for final concentration of 5 mg/mL, and 50 µL of the test solution was applied into the wells. The positive control (catechin) was also added at the same concentration and volume to each plate. In addition, DMSO (control solvent) was added to each plate. […] Bacterial growth inhibition by the tested compounds was measured as radius (r1) in mm, while both growth and pigment inhibition was measured as radius (r2) in mm. The pigment inhibition (QS inhibition) was determined by subtracting bacterial growth inhibition (r1) from the total radius (r2); thus, QS inhibition = (r2 - r1) in mm.

With `O=C1O[C@H]([C@@H](O)CO)C(O)=C1O` [Ascorbic acid, L-Ascorbic acid, reference compound] the “Absorbance (bleomycin-dependent DNA damage)” value [1] was 0.060 ± 0.02.
With `O=c1[nH]cc(F)c(=O)[nH]1` [Compound 5-Fu, 5-Fluorouracil, reference compound] the IC50 at 3 days [2] was 10.3 ± 0.62 µM, the IC50 [3] was 8.78 ± 0.6 µM and the IC50 [4] was 5.35 ± 0.23 µM. For the same molecule, the IC50 [5] was 5.58 ± 0.31 µM and the IC50 [6] was 7.2 ± 0.45 µM.
With `OC(Cn1cncn1)(Cn1cncn1)c1ccc(F)cc1F` [Fluconazole, reference compound] the MIC [7] was over 1250 µg/mL and the MIC [8] was over 1250 µg/mL.
In the case of `CC1(C)S[C@@H]2[C@H](NC(=O)[C@H](N)c3ccccc3)C(=O)N2[C@H]1C(=O)O` [Ampicillin, reference compound], the MIC [9] is reported as 19.5 µg/mL (≈ 0.0558 mM), the MIC [10] is reported as 78 µg/mL (≈ 0.223 mM) and the MIC [11] is reported as 1250 µg/mL (≈ 3.58 mM). The MIC [12] was over 1250 µg/mL.
For `O.Oc1cc(O)c2c(c1)O[C@H](c1ccc(O)c(O)c1)[C@@H](O)C2` [Catechin, catechin, reference compound], the “Diameter of quorum-sensing inhibition C. violaceum” value [13] was 2 mm.
